Consider 1 compound from patent publication US20180273970A1, “PLASMID, TRANSFORMED PLANT CELL AND TRANSGENIC PLANT COMPRISING THE SAME, AND METHODS FOR PREPARING A TRANSGENIC PLANT AND FOR INCREASING YIELD OF A PLANT UNDER ABIOTIC STRESSES” (Academia Sinica, priority 2014, published 2018).

For one assay, the system named is SnRK1A-GFP. Kind of assay: Cellular localization of SnRK1A-GFP in transfected barley aleurones (confocal microscopy). In kind it is cell-based. The note with it: 48 h; for % of total cells with SnRK1A-GFP in location [drawing 1] (nucleus) / % of total cells with SnRK1A-GFP in location [drawing 2] (cytoplasm) / Number of cells with SnRK1A-GFP in location [drawing 1] (nucleus) / Number of cells with SnRK1A-GFP in location [drawing 2] (cytoplasm): +ABA. How it is done:
(§1) FIG. 10. ABA restricts SKINs, SnRK1A and MYBS1 in the cytoplasm under sugar starvation. Barley aleurones were co-transfected with indicated plasmid constructs and incubated in +S or −S medium with ABA (+ABA) or without ABA (−ABA) for 48 h. Thirty optical sections of 0.9-1.1 μm thickness were prepared for each cell and only five regularly spaced sections (sections 3, 9, 15, 21 and 27) are shown here. C and N indicate higher GFP signals, and c and n indicate lower GFP signals in the cytoplasm and nucleus, respectively. For more section images of each cell, see also FIG. 22 online. (A) Barley aleurones were transfected with Ubi:SKIN1-GFP, Ubi:SKIN2-GFP, Ubi:SnRK1A-GFP or Ubi:MYBS1-GFP alone. (B) Barley aleurones were transfected with Ubi.MYBS1-GFP alone (panel 1) or co-transfected with Ubi.MYBS1-GFP and Ubi:SnRK1A (panel 2), or with Ubi.MYBS1-GFP and Ubi:SnRK1A(Ri) (panel 3). (C) Barley aleurones were co-transfected with Ubi:SnRK1A-GFP and Ubi:SKIN(Ri). (D) Wild type rice (WT) or transgenic rice overexpression Ubi:SKIN(Ri) were transfected with Ubi:SnRK1A-GFP (panels 1-3) or Ubi.MYBS1-GFP (panels 4-6).
Detection of cellular localization of SKIN-GFP, SnRK1A-GFP and MYBS1-GFP fusion proteins were performed as described (Hong et al., 2012). Embryoless barley and rice seeds were sterilized with 1% NaOCl for 30 mins, and incubated in a buffer containing 20 mM CaCl2 and 20 mM sodium succinate, pH 5.0, for 4 days. Aleurone layers were isolated by scratching away starch in the endosperm with a razor blade. Four aleurone layers were arranged in a 10-cm dish for bombardment. Aleurone layers expressing GFP were examined with a Ziess confocal microscope (LSM510META) using a 488-nm laser line for excitation and a 515- to 560-nm long pass filter for emission.

Another assay relates to SKIN-GFP. Briefly: Cellular localization of SKIN-GFP in transfected barley aleurones (confocal microscopy). It counts as cell-based. As to conditions: −S medium containing ABA, 48 h. How it is done: as §1
(§2) Detection of cellular localization of SKIN-GFP, SnRK1A-GFP and MYBS1-GFP fusion proteins were performed as described (Hong et al., 2012). […]

In the next assay the test system is MYBS1-GFP. Kind of assay: Cellular localization of MYBS1-GFP in transfected barley aleurones (confocal microscopy). In kind it is cell-based. As to conditions: −S medium containing ABA, 48 h. How it is done: as §1, §2
A further assay relates to rice seedlings. Briefly: Germination and seedling shoot growth in water containing ABA. In kind it is in vivo. The note with it: ABA 1 to 10 μM, 6 days, 28° C., 14-h light/10-h dark. How it is done: FIG. 9. The expression of SKIN is induced by various abiotic stresses and ABA, and SKINs promote the ABA sensitivity. (A) Total RNA was purified from leaves of 2-week-old rice seedlings that had been air dried, treated with 200 mM salt, incubated at 4° C., or treated with 1 μM ABA, or from embryos of seedlings grown underwater (hypoxia), for various lengths of time. RNAs were subjected to quantitative RT-PCR analysis using primers specific for SKIN1 and SKIN2. The highest mRNA level was set as 100%. The lowest mRNA level was assigned a value of 1× and mRNA levels of other samples were calculated relative to this value. Error bars indicate the SE for three replicate experiments. (B) Seeds of transgenic lines SKIN1-Ox(O3), SKIN1-Ri(R3), SKIN2-Ox(02) and SKIN2-Ri(R1) were germinated and grown in water containing various concentrations of ABA at 28° C. under a 14-h light/10-h dark cycle for 6 days. Lengths of shoots were measured. Error bars represent SE (n=8) at significance levels: * p<0.1, ** p<0.05. For photos of treated seedlings, see also FIG. 20 online.
FIG. 20. Growth of transgenic rice overexpressing SKIN is more sensitive to ABA inhibition. Seeds of transgenic lines SKIN1-Ox(O3), SKIN1-Ri(R3), SKIN2-Ox(02) and SKIN2-Ri(R1) were germinated and grown in water containing various concentrations of ABA for 6 days at 28 C under a 14-h light/10-h dark cycle. […]

Another assay has as its system αAmy3 SRC promoter. Kind of assay: Barley aleurone transient expression assay, SRC-35Smp:Luc reporter (luciferase). It counts as cell-based. The note with it: barley aleurones, 5 μM ABA or 400 mM sorbitol, 24 h. How it is done: FIG. 21. ABA and sorbitol suppress the function of SnRK1A in activation of αAmy3 SRC promoter. Rice embryos and barley aleurones were transfected with reporter SRC-35Smp:Luc with or without effectors, incubated with or without ABA for 24 h, and assayed for luciferase activity. The luciferase activity in embryos or aleurones bombarded with the SRC-35S mp-Luc construct only and in +S medium was set to 1×, and other values were calculated relative to this value. Error bars indicate the SE for three replicate experiments. (A) Plasmid constructs. (B) Barley aleurones were transfected with effector Ubi:SnRK1A, Ubi:SKIN1 or Ubi:SKIN(Ri) alone and reporter SRC-35Smp:Luc, or co-transfected with effectors Ubi:SnRK1A and Ubi:SKIN or Ubi:SKIN(Ri) and reporter SRC-35Smp:Luc. (C) Rice embryos (upper panel) were transfected with or without Ubi:SnRK1A and incubated with or without 1 μM ABA or 50 mM sorbitol, and barley aleurones (lower panel) were transfected with or without Ubi:SnRK1A and incubated with 5 μM ABA or 400 mM sorbitol.
The barley aleurone/endosperm transient expression assays were performed as described (Hong et al., 2012). Each independent experiment consisted of three replicates, with six endosperms for each treatment, and was repeated three times with similar results. Luciferase and GUS activity assays were performed as described (Hong et al., 2012). […]

Turning to `CC1=CC(=O)CC(C)(C)[C@@]1(O)/C=C/C(C)=C\C(=O)O` [ABA, abscisic acid], in the assay on SnRK1A-GFP (+S medium), the “% of total cells with SnRK1A-GFP in location [drawing 1] (nucleus)” value is 15.8%, the “% of total cells with SnRK1A-GFP in location [drawing 2] (cytoplasm)” value amounted to 84.2%, the “Number of cells with SnRK1A-GFP in location [drawing 1] (nucleus)” value is 6 and the “Number of cells with SnRK1A-GFP in location [drawing 2] (cytoplasm)” value is listed as 32. The “Localization of SnRK1A-GFP” value in the assay with SnRK1A-GFP (−S medium containing ABA) is on record as “exclusively localized in the cytoplasm”. For the same compound, in the assay on SnRK1A-GFP (−S medium), the “% of total cells with SnRK1A-GFP in location [drawing 1] (nucleus)” value was 8.0%, the “% of total cells with SnRK1A-GFP in location [drawing 2] (cytoplasm)” value was determined as 92.0%, the “Number of cells with SnRK1A-GFP in location [drawing 1] (nucleus)” value came out at 7 and the “Number of cells with SnRK1A-GFP in location [drawing 2] (cytoplasm)” value was 81. Also, the “Localization of SKIN-GFP” value with SKIN-GFP is on record as “exclusively localized in the cytoplasm”. The “Localization of MYBS1-GFP” value in the assay with MYBS1-GFP was “exclusively localized in the cytoplasm”. Moreover, the “Degree of inhibition on growth of wild type and all transgenic lines” value with rice seedlings was “increased with ABA concentrations from 1 to 10 μM”. Besides, the “Effect on αAmy3 SRC promoter (luciferase activity), alone and SnRK1A-activated” value in the assay with αAmy3 SRC promoter was “suppressed”.
